Experimental data as given in patent publication US11612599B2, “Glycosidase inhibitors” (Asceneuron SA, priority 2016, dated 2023).

target: Human O-GlcNAcase (His-Tagged hOGA) (Homo sapiens (Human), UniProt O60502); assay: Human O-GlcNAcase enzyme inhibition assay; format: biochemical; details: OGA enzyme inhibition assay; activity range classes defined in μM
Sequence (O60502 whole entry): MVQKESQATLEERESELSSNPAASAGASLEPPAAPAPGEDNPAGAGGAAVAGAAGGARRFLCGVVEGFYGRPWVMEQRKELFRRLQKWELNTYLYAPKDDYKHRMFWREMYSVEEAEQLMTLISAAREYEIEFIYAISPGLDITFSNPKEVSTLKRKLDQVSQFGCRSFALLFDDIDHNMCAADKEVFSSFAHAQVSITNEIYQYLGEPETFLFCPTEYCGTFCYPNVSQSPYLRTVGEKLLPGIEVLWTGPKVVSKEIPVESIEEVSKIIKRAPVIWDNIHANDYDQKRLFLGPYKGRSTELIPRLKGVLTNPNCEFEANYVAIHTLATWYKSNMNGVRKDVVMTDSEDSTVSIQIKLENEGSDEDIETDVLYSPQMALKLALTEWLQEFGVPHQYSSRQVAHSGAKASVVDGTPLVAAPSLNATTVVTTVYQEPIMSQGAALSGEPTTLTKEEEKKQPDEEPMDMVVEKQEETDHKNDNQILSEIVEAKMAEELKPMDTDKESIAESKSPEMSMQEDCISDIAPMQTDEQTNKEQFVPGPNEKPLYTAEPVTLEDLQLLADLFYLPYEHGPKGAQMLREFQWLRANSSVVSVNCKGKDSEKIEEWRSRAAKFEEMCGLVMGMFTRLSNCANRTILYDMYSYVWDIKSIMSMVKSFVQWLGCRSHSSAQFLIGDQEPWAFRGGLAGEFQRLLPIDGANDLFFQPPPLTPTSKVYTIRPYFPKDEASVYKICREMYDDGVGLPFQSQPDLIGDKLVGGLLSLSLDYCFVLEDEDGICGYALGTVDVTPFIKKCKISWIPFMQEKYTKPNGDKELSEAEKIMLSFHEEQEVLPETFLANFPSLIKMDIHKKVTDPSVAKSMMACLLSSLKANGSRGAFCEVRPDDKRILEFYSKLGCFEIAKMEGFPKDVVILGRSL
Method: Then, 20 nM of His-Tagged hOGA and 10 μM of FL-GlcNAc (Fluorescein mono-beta-D-(2-deoxy-2-N-acetyl) glucopyranoside; Marker Gene Technologies Inc, M1485) were added to the 384-well plate for a final volume of 20 μl.

`CC(c1ccc2c(c1)OCC2)N1CCN(c2cc3c(cn2)NC(=O)CO3)CC1` (racemic) [Example 3, 7-(4-(1-(2,3-dihydrobenzofuran-6-yl)ethyl)piperazin-1-yl)-2H-pyrido[4,3-b][1,4]oxazin-3(4H)-one] and `CC(c1ccc2c(c1)OCC2)N1CCN(c2ccc3c(c2)C(=O)NC3)CC1` (racemic) [Example 2, 6-(4-(1-(2,3-dihydrobenzofuran-6-yl)ethyl)piperazin-1-yl)isoindolin-1-one] cannot be ordered by IC50: < 0.05 µM for the first, < 0.05 µM for the second.

First: C[C@H](c1ccc2c(c1)OCC2)N1CCN(c2nc3c(s2)CNCC3)CC1 (single isomer, unassigned) [Example 18]
Second: CC(c1ccc2c(c1)OCC2)N1CCN(c2nc3c(s2)C(=O)NCC3)CC1 (racemic) [Example 12, 2-(4-(1-(2,3-dihydrobenzofuran-6-yl)ethyl)piperazin-1-yl)-6,7-dihydrothiazolo[5,4-c]pyridin-4(5H)-one]
The IC50 of the first is higher: 1 to 10 µM for the first, < 0.05 µM for the second. The second is the more potent here.

First: Cc1ncc2ccc(N3CCN(C(C)c4ccc5c(c4)OCC5)CC3)cn12 (racemic) [Example 1, 6-(4-(1-(2,3-dihydrobenzofuran-6-yl)ethyl)piperazin-1-yl)-3-methylimidazo[1,5-a]pyridine]
Second: CC(c1ccc2nccnc2c1)N1CCN(c2ccc3c(c2)C(=O)NC3)CC1 (racemic) [Example 4, 6-(4-(1-(quinoxalin-6-yl)ethyl)piperazin-1-yl)isoindolin-1-one]
The IC50 of the first is lower: < 0.05 µM for the first, 0.05 to 0.2 µM for the second.
